In brackets after ≈: the same amount, converted by molar mass. Where two headings read alike, the source gives them in different places.
How the values were obtained:
[1] = system: Listeria innocua ATCC 33090; test: Antimicrobial test, 5 min treatment, plate count; format: cell-based; settings: 0.1%
Method: Since the solutions contained 10% of ethanol, ethanol (10%) along with water were used as references. The bacteria and the solutions were vortexed and incubated at ambient temperature ([…]) for 5 min before immediately being plated (diluted when needed) on TSA to determine the survival of the bacteria. After 24 h at 37° C., colonies on the plates were counted.
Statistical analysis: Data on antimicrobial test were subjected to statistical analysis using SAS Version 8.2 (SAS Institute, Cary, N.C.). The Duncan's multiple range test was used for the treatment effects.

[2] = system: Listeria innocua ATCC 33090; test: MIC/MBC micro-dilution; format: cell-based
[3] = Listeria innocua, ATCC33090, 24 h

Compound | MBC ([2]; Listeria innocua, ATCC33090) [µg/mL] | MIC [2, 3] [µg/mL] | further results
CCCCCCCC/C=C\CCCCCCCC(=O)O [OLA, oleic acid] |  |  | Reduction of population of L. innocua [1]: 3.5 logs CFU/mL
Oc1ccccc1 [Phenol, phenol] | > 454 | > 454 | Effect on population of L. innocua [1]: no significant effect
Cc1ccc(C(C)C)cc1O [Carvacrol] | 454 (≈ 3.03 mM) | 233 to 454 (≈ 1.55 to 3.03 mM) | 
Cc1ccc(C(C)C)c(O)c1 [Thymol] |  |  | MIC ([2]; ATCC33090, Listeria innocua ATCC 33090, 24 h at 37° C., read-out: MIC): 233 to 454 µg/mL (≈ 1.55 to 3.03 mM); MBC ([2]; ATCC33090, Listeria innocua ATCC 33090, read-out: MBC): > 454 µg/mL

Reference: patent US10144694B2, “Methods for preparing phenolic branched chain alkyl fatty acids or esters thereof and methods for killing microorganisms” (The United States of America, as Represented by the …, priority 2016, dated 2018)
